Assay results published in PMC4872784 (Oncotarget, 2016).
Values joined by “and” are separate entries in the source; they are usually repeats but may differ in a detail not shown here. Identical values can stand only once. Like-named read-outs stand apart in the source and are kept apart here.

What was measured:
MOLM14 cells = experiment: apoptosis (Annexin-V/7-AAD flow cytometry); format: cell-based, human; settings: 24h
Procedure: A. Quantification of the percentage of early apoptotic cells (Annexin-V+/7-AAD-) from three independent experiments in which cells were stained for apoptosis with 7-AAD and Annexin-V then analyzed by flow cytometry. […] C. […] 16h after addition of drugs, cells were washed and analyzed by flow cytometry for CM-H2DCFDA fluorescence (indicating total ROS generation) in the FL1 channel. Mean Fluorescence Intensity (MFI) was normalized to that of vehicle control (0.5% DMSO) with no pretreatment. […] Viable cell counts, obtained via Trypan Blue dye exclusion, were normalized to vehicle (0.02% DMSO)-treated samples +/– pretreatment.
Cells were co-stained with […] each 7-AAD and APC-conjugated Annexin-V (BioLegend), in Annexin-V binding buffer and analyzed by flow cytometry. Caspase-3/7 activity was measured using a Caspase-Glo 3/7 Assay (Promega, Madison, WI).

NSG mice = experiment: tolerability / maximum-tolerated dose
Procedure: Blood samples were collected via
retro-orbital bleeding into EDTA-coated tubes from MOLM14 NSG mice 1 day A-D. and 7 days E-H. after completion of a 5-day drug
CBCs were determined using a Hemavet 950 analyzer.
Normal blood samples were obtained from normal, untreated NSG mice (n = 37) over several years.

[1] = plasma pharmacokinetics after single oral dose; settings: NSG mice
Procedure: Plasma samples were obtained from 3-6 male NSG mice per time point (15min-24h after drug administration). Symbols represent concentrations of compound by LC/MS-MS detection.
Blood samples were collected via retro-orbital bleeding into EDTA-coated tubes. PK samples were centrifuged to obtain plasma, which was stored frozen (−80°C) until liquid chromatography/triple quadrupole mass spectrometry (LC/MS-MS) analysis.
were separated using an Agilent Zorbax Eclipse C18 column (2.1 mm x 50 mm, 3.5 μm) using gradient mobile phase
(acetonitrile and 2 mM ammonium acetate both containing 0.1% formic acid) and a gradient flow rate (0.2 to 0.4 ml/
min). An AB Sciex 5500 triple quadrupole mass spectrometer was used for detection. The m/z transitions used were
The calibration range was 5–1,000 ng/mL for all analytes. Mean drug concentrations were calculated at each time point. PK parameters (plasma
half-life [T1/2]; time to reach Cmax [Tmax]; maximum plasma concentration [Cmax]; area under the plasma concentration-
time curve [AUC] from time zero to the last measurable concentration [AUClast]; AUC from time zero to infinity [i.e.,
the AUClast + the extrapolated AUC from AUClast to infinity; AUC0–∞]; apparent volume of distribution [Vz/F]; body
weight-adjusted apparent clearance [CL/F/kg]) were calculated from mean drug concentration-time data using non-
the r2 of the elimination rate constant (λ ) was < 0.9, the AUC , CL/F, and T were not reported (NR).

[2] = test system: 23 human leukemia cell lines; experiment: alamarBlue cytotoxicity assay, panel summary; format: cell-based
Procedure: (§1) Following subtraction of background fluorescence from all wells, fluorescence of drug-treated cells was normalized to that of vehicle (<0.5% DMSO)-treated cells to determine the effect of each drug concentration on viability. Each cell line was tested in triplicate and in at least three independent experiments. IC50 (concentration that inhibits cell growth by 50%) values were calculated using CompuSyn software (ComboSyn, Paramus, NJ). […] In addition several cell lines were initially cultured and tested in alternative media (Supplementary Table S2). […] Colony counts were normalized to vehicle-treated controls (100%). Three independent experiments were performed.
In most experiments, cytotoxicity was assessed using alamarBlue assays (Life Technologies, Grand Island, NY). In experiments using NAC and DFO, which can interfere with alamarBlue assay performance, Trypan Blue dye exclusion was used instead.

MOLT-3 cells = experiment: alamarBlue cytotoxicity assay, 48h; format: cell-based, human; settings: MOLT-3 (T-ALL), RPMI + 10% FBS
Procedure: as §1
(§2) In most experiments, cytotoxicity was assessed using alamarBlue assays (Life Technologies, Grand Island, NY). In experiments using NAC and DFO, which can interfere with alamarBlue assay performance, Trypan Blue dye exclusion was used instead. […]
(§3) experiments performed in triplicate. […] Age refers to age […]
(§4) at the time of leukemia diagnosis of the patient from whom the cell line was derived. (–) Indicates information unavailable.
(§5) *Cell lines with FLT3/ITD mutations.
(§6) *The MV-4–11 cell line was derived from a patient with a biphenotypic B-myelomonocytic leukemia; K562 was derived […]
(§7) 1A. p53 status was obtained from http://cancer.sanger.ac.uk/cell_lines/cbrowse/all and http://p53.free.fr/Database/Cancer_ cell_lines/Leukemia_cancer. html. WT: wild type. Mut: mutant. SM: single mutation. DM: double mutation. MM: multiple mutations. Fs: Frameshift mutation. Null: protein expression undetectable.

Jurkat cells = experiment: alamarBlue cytotoxicity assay, 48h; format: cell-based, human; settings: Jurkat (T-ALL), RPMI + 10% FBS
Procedure: as §1, §2, §3, §4, §5, §6, §7

SUPB15 cells = experiment: alamarBlue cytotoxicity assay, 48h; format: cell-based, human
Procedure: as §1, §2, §3, §4, §5, §6, §7

RCH-ACV cells = experiment: alamarBlue cytotoxicity assay, 48h; format: cell-based, human; settings: RCH-ACV (B-ALL), RPMI + 10% FBS
Procedure: as §1, §2, §3, §4, §5, §6, §7

REH cells = experiment: alamarBlue cytotoxicity assay, 48h; format: cell-based, human
Procedure: as §1, §2, §3, §4, §5, §6, §7

Kasumi-1 cells = experiment: alamarBlue cytotoxicity assay, 48h; format: cell-based, human; settings: Kasumi-1 (AML), RPMI + 10% FBS
Procedure: as §1, §2, §3, §4, §5, §6, §7

OCI-AML3 cells = experiment: alamarBlue cytotoxicity assay, 48h; format: cell-based, human
Procedure: as §1, §2, §3, §4, §5, §6, §7

HL-60 cells = experiment: alamarBlue cytotoxicity assay, 48h; format: cell-based, human; settings: HL-60 (AML), RPMI + 10% FBS
Procedure: as §1, §2, §3, §4, §5, §6, §7

K562 cells = experiment: alamarBlue cytotoxicity assay, 48h; format: cell-based, human; settings: K562 (CML), RPMI + 10% FBS
Procedure: as §1, §2, §3, §4, §5, §6, §7

NB-4 cells = experiment: alamarBlue cytotoxicity assay, 48h; format: cell-based, human; settings: NB-4 (AML), RPMI + 10% FBS
Procedure: as §1, §2, §3, §4, §5, §6, §7

ML-2 cells = experiment: alamarBlue cytotoxicity assay, 48h; format: cell-based, human; settings: ML-2 (AML), RPMI + 10% FBS
Procedure: as §1, §2, §3, §4, §5, §6, §7

THP-1 cells = experiment: alamarBlue cytotoxicity assay, 48h; format: cell-based, human
Procedure: as §1, §2, §3, §4, §5, §6, §7

[3] = plasma, single oral dose ART-838 50 mg/kg

In the case of `C[C@@H]1CCC2[C@@H](C)[C@@H](CC(COP(=O)(Oc3ccccc3)Oc3ccccc3)C[C@H]3O[C@@H]4O[C@@]5(C)CCC6[C@H](C)CCC([C@H]3C)[C@]64OO5)O[C@@H]3O[C@@]4(C)CCC1[C@@]23OO4` (stereo partly shown) [ART-838, artemisinin-derived trioxane diphenylphosphate dimer 838], the “fold lower concentration than AS achieving similar levels of apoptosis and caspase-3/7 activity” value (MOLM14 cells) is reported as 50 fold, the “chronic MTD” value (NSG mice; 5 days/week by oral gavage, NSG mice) is reported as 40 to 50 mg/kg and the dose-limiting toxicity (NSG mice; NSG mice, oral gavage) is reported as “acute weight loss”. For the same compound, the clinical neurotoxicity (NSG mice; NSG mice, prior toxicity experiments at approximate chronic MTD) was “no clinical neurotoxicity was observed”, the “complete and differential blood cell counts” value (NSG mice; normal NSG mice, 5-day cycle ART-838 50 mg/kg/d, days 6 and 12) was “normal complete and differential blood cell counts” and the “single dose MTD” value (NSG mice; oral gavage, NSG mice) was 500 to 600 mg/kg. The “fold longer T1/2 than DHA” value ([1]; ART-838 50 mg/kg vs DHA after AS 200 mg/kg, oral) was about 6 fold, the “detection of theoretical metabolites DHA and ART-606 in plasma” value ([1]; after ART-838 administration, LC/MS-MS) was “did not detect DHA or ART-606” and the “AUC0–∞” value [1, 3] was 951 ng·h/mL. The AUClast [1, 3] was 903 ng·h/mL, the CL/F/kg [1, 3] was 867 mL/min/kg and the Tmax [1, 3] was 1.5 h. For the same compound, the Vz/F [1, 3] was 241 L/kg, the T1/2 ([1]; plasma, single oral dose ART-838 50 mg/kg, 50 mg/kg) was 3.19 h and > 3 h and the “fold more potent than AS (average)” value ([2]; across 23 leukemia cell lines) was 88 fold. The “fold more potent than AS (range)” value ([2]; across 23 leukemia cell lines) was 11-315 fold, the IC50 ([2]; all 23 leukemia cell lines tested, 48h, read-out: IC50 range) was 10 to 550 nM and the IC50 ([2]; including those harboring MLLr and FLT3/ITD, read-out: IC50 against every acute leukemia tested) was under 1000 nM. For the same compound, the IC50 (MOLT-3 cells) was 97 ± 58 nM, the IC50 (Jurkat cells) was 255 ± 155 nM and the IC50 (SUPB15 cells; SUPB15 (B-ALL), 48h, RPMI + 10% FBS, read-out: IC50) was 26 ± 3 nM. The “-Fold Difference in IC50 between media” value (SUPB15 cells; SUPB15, RPMI + 20% FBS vs RPMI+10% FBS) was 3.0, the IC50 (SUPB15 cells; SUPB15, original medium RPMI + 20% FBS, read-out: IC50 in original medium) was 77 nM and the IC50 (RCH-ACV cells) was 36 ± 12 nM. The IC50 (REH cells; REH (B-ALL), 48h, RPMI + 10% FBS, read-out: IC50) was 95 ± 40 nM, the “-Fold Difference in IC50 between media” value (REH cells; REH, RPMI + 20% FBS vs RPMI+10% FBS) was 1.3 and the IC50 (REH cells; REH, original medium RPMI + 20% FBS, read-out: IC50 in original medium) was 123 nM. The IC50 (REH cells; read-out: IC50 in RPMI+10% FBS, REH, Table S2) was 95 nM, the IC50 (Kasumi-1 cells) was 67 ± 23 nM and the IC50 (OCI-AML3 cells; OCI-AML3 (AML), 48h, RPMI + 10% FBS, read-out: IC50) was 168 ± 41 nM. For the same compound, the “-Fold Difference in IC50 between media” value (OCI-AML3 cells; OCI-AML3, RPMI + 20% FBS vs RPMI+10% FBS) was 1.7, the IC50 (OCI-AML3 cells; OCI-AML3, original medium RPMI + 20% FBS, read-out: IC50 in original medium) was 287 nM and the IC50 (HL-60 cells) was 107 ± 45 nM. For the same compound, the IC50 (K562 cells) was 94 ± 12 nM, the IC50 (NB-4 cells) was 26 ± 7 nM and the IC50 (ML-2 cells) was 21 ± 11 nM. The IC50 (THP-1 cells; THP-1 (AML), 48h, RPMI + 10% FBS, read-out: IC50) was 38 ± 9 nM, the “-Fold Difference in IC50 between media” value (THP-1 cells; THP-1, RPMI + 10% FBS + 50 μM β-mercaptoethanol vs RPMI+10% FBS) was 2.5 and the IC50 (THP-1 cells; THP-1, original medium RPMI + 10% FBS + 50 μM β-mercaptoethanol, read-out: IC50 in original medium) was 95 nM.
In the case of `C[C@H]1[C@H](OC(=O)CCC(=O)O)O[C@@H]2O[C@@]3(C)CC[C@H]4[C@H](C)CC[C@@H]1[C@@]24OO3` [AS, artesunate], the apoptosis (MOLM14 cells; AS 5 μM) is reported as “induced significant apoptosis”, the clinical neurotoxicity (NSG mice; mouse, in vivo) is reported as “no clinical neurotoxicity was observed” and the dose-limiting toxicity (NSG mice; mouse, in vivo, po) is reported as “acute weight loss”. The “time by which plasma declined to undetectable levels” value ([1]; single oral dose AS 200 mg/kg) was at most 1 h, the IC50 ([2]; Homo sapiens, 48 h, all 23 leukemia cell lines tested, 48h, read-out: IC50 range) was 460 to 10300 nM and the IC50 ([2]; Homo sapiens, Leukemia Type: ALL, unit only on plot axis of Figure 1A, read-out: IC50 Range) was 460 to 10000 nM. For the same compound, the IC50 ([2]; Homo sapiens, Leukemia Type: ALL, unit only on plot axis of Figure 1A, read-out: Mean IC50) was 5000 nM, the IC50 ([2]; Homo sapiens, Leukemia Type: ALL, unit only on plot axis of Figure 1A, read-out: Median IC50) was 4800 nM and the IC50 ([2]; Homo sapiens, Leukemia Type: AML, unit only on plot axis of Figure 1A, read-out: IC50 Range) was 800 to 6300 nM. For the same compound, the IC50 ([2]; Homo sapiens, Leukemia Type: AML, unit only on plot axis of Figure 1A, read-out: Mean IC50) was 2300 nM, the IC50 ([2]; Homo sapiens, Leukemia Type: AML, unit only on plot axis of Figure 1A, read-out: Median IC50) was 1700 nM and the IC50 (MOLT-3 cells; Homo sapiens) was 4100 ± 620 nM. For the same compound, the IC50 (Jurkat cells; Homo sapiens) was 4330 ± 1180 nM, the IC50 (SUPB15 cells; Homo sapiens, SUP-B15, SUPB15 (B-ALL), 48h, RPMI + 10% FBS, read-out: IC50) was 7820 ± 1220 nM and the IC50 (SUPB15 cells; Homo sapiens, SUP-B15, SUPB15, original medium RPMI + 20% FBS, read-out: IC50 in original medium) was 14300 nM. It also gave an IC50 (RCH-ACV cells; Homo sapiens) of 3200 ± 540 nM, an IC50 (REH cells; Homo sapiens, read-out: IC50 in RPMI+10% FBS, REH, Table S2) of 10300 nM and an IC50 (REH cells; Homo sapiens, REH (B-ALL), 48h, RPMI + 10% FBS, read-out: IC50) of 10300 ± 3000 nM. For the same compound, the IC50 (REH cells; Homo sapiens, REH, original medium RPMI + 20% FBS, read-out: IC50 in original medium) was 15400 nM, the IC50 (Kasumi-1 cells; Homo sapiens) was 1720 ± 230 nM and the IC50 (OCI-AML3 cells; Homo sapiens, OCI-AML-3, OCI-AML3 (AML), 48h, RPMI + 10% FBS, read-out: IC50) was 1810 ± 200 nM. For the same compound, the IC50 (OCI-AML3 cells; Homo sapiens, OCI-AML-3, OCI-AML3, original medium RPMI + 20% FBS, read-out: IC50 in original medium) was 3560 nM, the IC50 (HL-60 cells; Homo sapiens) was 3000 ± 600 nM and the IC50 (K562 cells; Homo sapiens) was 4750 ± 850 nM. It also gave an IC50 (NB-4 cells; Homo sapiens) of 947 ± 141 nM, an IC50 (ML-2 cells; Homo sapiens) of 1460 ± 210 nM and an IC50 (THP-1 cells; Homo sapiens, THP-1 (AML), 48h, RPMI + 10% FBS, read-out: IC50) of 2200 ± 480 nM. The IC50 (THP-1 cells; Homo sapiens, THP-1, original medium RPMI + 10% FBS + 50 μM β-mercaptoethanol, read-out: IC50 in original medium) was 11100 nM.
